{
  "source": "ChEMBL document CHEMBL4130451",
  "about": "“Design and Synthesis of N-Aryl Phenoxyethoxy Pyridinones as Highly Selective and CNS Penetrant mGlu3 NAMs” (ACS Med Chem Lett, 2017)",
  "key": {"[1]": {"biological_target": "Metabotropic glutamate receptor 3 (Rattus norvegicus, UniProt P31422)", "test": "Negative allosteric modulation of rat mGlu3 receptor expressed in TREX cells coexpressing Galpha15 assessed as inhibition of glutamate induced-calcium mobilization preincubated for 2.3 mins followed by glutamate addition measured for 2.6 mins by Fluo-4 AM dye based fluorescence assay", "type": "functional, cell-based"}, "[2]": {"biological_target": "Metabotropic glutamate receptor 2 (Rattus norvegicus, UniProt P31421)", "test": "Negative allosteric modulation of rat mGlu2 receptor expressed in HEK293 cells coexpressing Galpha15 assessed as inhibition of glutamate induced-calcium mobilization preincubated for 2.3 mins followed by glutamate addition measured for 1.9 mins by Fluo-4 AM dye based fluorescence assay", "type": "functional, cell-based"}, "Cytochrome P450 3A4": {"biological_target": "Cytochrome P450 3A4 (Homo sapiens, UniProt P08684)", "test": "Inhibition of CYP3A4 in human liver microsomes using midazolam as substrate after 15 mins in presence of NADPH by LC/MS/MS analysis", "type": "ADME"}, "Cytochrome P450 1A2": {"biological_target": "Cytochrome P450 1A2 (Homo sapiens, UniProt P05177)", "test": "Inhibition of CYP1A2 in human liver microsomes using phenacetin as substrate after 15 mins in presence of NADPH by LC/MS/MS analysis", "type": "ADME"}, "[3]": {"test": "Fraction unbound in rat brain homogenate at 5 uM after 6 hrs by equilibrium dialysis based LC/MS/MS analysis", "type": "ADME, tissue-based"}, "[4]": {"test": "Brain to plasma partition coefficient, Kp of the compound in rat", "type": "ADME"}, "[5]": {"biological_target": "Metabotropic glutamate receptor 1 (Homo sapiens) (UniProt Q13255)", "test": "Negative allosteric modulation of human mGlu1 receptor expressed in TREX293 cells assessed as inhibition of glutamate induced-calcium mobilization preincubated for 2.3 mins followed by glutamate addition measured for 2.6 mins by Fluo-4 AM dye based fluorescence assay", "type": "functional, cell-based"}, "[6]": {"biological_target": "Metabotropic glutamate receptor 6 (Homo sapiens) (UniProt O15303)", "test": "Negative allosteric modulation of human mGlu6 receptor expressed in HEK/GIRK cells assessed as inhibition of glutamate induced-calcium mobilization preincubated for 2.3 mins followed by glutamate addition measured for 2.6 mins by Fluo-4 AM dye based fluorescence assay", "type": "functional, cell-based"}, "[7]": {"test": "Fraction unbound in mouse plasma at 5 uM after 4 hrs by equilibrium dialysis based LC/MS/MS analysis", "type": "ADME, cell-free"}, "Mus musculus [8]": {"tested_on": "Mus musculus", "test": "Antidepressant activity in CD-1 mouse assessed as reduction in immobility time at 3 mg/kg administered ip 15 mins prior to test measured for 6 mins by tail suspension test", "type": "functional, organism-based"}, "[9]": {"test": "Drug uptake in Harlan CD-1 mouse brain at 3 mg/kg, ip by LC/MS-MS analysis", "type": "ADME, organism-based", "conditions": "in vivo, read-out: Drug uptake"}, "[10]": {"biological_target": "Alpha-2A adrenergic receptor (Homo sapiens) (UniProt P08913)", "test": "Inhibition of human adrenergic alpha 2A receptor at 10 uM relative to control"}, "[11]": {"biological_target": "Androgen receptor (Rattus norvegicus) (UniProt P15207)", "test": "Inhibition of rat androgen receptor at 10 uM relative to control"}, "[12]": {"biological_target": "L-type calcium channel, benzodiazepine site (Rattus norvegicus, UniProt P22002+P27732+Q02485)", "test": "Inhibition of rat L-type calcium channel benzodiazepine site at 10 uM relative to control", "type": "protein assay"}, "Rattus norvegicus [13]": {"species": "Rattus norvegicus", "test": "Inhibition of rat N-type calcium channel […] at 10 uM relative to control"}, "[14]": {"biological_target": "Cannabinoid receptor 1 (Homo sapiens) (UniProt P21554)", "sequence (P21554 whole entry)": "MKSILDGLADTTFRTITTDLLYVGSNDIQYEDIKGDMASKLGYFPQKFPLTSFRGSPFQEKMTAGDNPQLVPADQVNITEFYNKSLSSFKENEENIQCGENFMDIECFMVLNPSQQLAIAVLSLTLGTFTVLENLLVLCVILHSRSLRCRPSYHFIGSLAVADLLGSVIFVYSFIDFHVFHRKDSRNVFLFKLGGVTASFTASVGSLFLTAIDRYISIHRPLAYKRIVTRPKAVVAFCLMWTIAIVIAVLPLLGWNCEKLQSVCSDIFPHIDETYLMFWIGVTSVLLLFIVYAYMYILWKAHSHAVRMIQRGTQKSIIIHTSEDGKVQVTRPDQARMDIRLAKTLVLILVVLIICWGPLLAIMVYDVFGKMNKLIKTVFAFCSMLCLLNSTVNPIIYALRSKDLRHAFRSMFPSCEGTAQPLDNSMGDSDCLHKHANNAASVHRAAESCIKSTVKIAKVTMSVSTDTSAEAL", "test": "Inhibition of human cannabinoid CB1 receptor at 10 uM relative to control"}, "Homo sapiens": {"species": "Homo sapiens", "test": "Inhibition of human dopamine D4.2 receptor at 10 uM relative to control"}, "[15]": {"biological_target": "Endothelin-1 receptor (Homo sapiens) (UniProt P25101)", "sequence (P25101 whole entry)": "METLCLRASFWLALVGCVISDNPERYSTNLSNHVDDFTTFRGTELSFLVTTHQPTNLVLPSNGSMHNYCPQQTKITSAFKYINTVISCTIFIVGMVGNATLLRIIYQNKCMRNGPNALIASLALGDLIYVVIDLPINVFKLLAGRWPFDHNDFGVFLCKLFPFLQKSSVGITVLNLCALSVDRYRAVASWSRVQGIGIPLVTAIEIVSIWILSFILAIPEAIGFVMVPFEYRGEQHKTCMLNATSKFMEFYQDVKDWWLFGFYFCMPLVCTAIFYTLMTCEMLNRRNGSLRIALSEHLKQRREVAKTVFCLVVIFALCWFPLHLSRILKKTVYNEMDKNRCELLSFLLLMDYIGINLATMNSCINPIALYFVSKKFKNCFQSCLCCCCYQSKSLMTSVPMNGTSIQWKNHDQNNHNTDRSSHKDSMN", "test": "Inhibition of human endothelin A receptor at 10 uM relative to control"}, "[16]": {"biological_target": "Epidermal growth factor receptor (Homo sapiens) (UniProt P00533)", "sequence (P00533 whole entry)": "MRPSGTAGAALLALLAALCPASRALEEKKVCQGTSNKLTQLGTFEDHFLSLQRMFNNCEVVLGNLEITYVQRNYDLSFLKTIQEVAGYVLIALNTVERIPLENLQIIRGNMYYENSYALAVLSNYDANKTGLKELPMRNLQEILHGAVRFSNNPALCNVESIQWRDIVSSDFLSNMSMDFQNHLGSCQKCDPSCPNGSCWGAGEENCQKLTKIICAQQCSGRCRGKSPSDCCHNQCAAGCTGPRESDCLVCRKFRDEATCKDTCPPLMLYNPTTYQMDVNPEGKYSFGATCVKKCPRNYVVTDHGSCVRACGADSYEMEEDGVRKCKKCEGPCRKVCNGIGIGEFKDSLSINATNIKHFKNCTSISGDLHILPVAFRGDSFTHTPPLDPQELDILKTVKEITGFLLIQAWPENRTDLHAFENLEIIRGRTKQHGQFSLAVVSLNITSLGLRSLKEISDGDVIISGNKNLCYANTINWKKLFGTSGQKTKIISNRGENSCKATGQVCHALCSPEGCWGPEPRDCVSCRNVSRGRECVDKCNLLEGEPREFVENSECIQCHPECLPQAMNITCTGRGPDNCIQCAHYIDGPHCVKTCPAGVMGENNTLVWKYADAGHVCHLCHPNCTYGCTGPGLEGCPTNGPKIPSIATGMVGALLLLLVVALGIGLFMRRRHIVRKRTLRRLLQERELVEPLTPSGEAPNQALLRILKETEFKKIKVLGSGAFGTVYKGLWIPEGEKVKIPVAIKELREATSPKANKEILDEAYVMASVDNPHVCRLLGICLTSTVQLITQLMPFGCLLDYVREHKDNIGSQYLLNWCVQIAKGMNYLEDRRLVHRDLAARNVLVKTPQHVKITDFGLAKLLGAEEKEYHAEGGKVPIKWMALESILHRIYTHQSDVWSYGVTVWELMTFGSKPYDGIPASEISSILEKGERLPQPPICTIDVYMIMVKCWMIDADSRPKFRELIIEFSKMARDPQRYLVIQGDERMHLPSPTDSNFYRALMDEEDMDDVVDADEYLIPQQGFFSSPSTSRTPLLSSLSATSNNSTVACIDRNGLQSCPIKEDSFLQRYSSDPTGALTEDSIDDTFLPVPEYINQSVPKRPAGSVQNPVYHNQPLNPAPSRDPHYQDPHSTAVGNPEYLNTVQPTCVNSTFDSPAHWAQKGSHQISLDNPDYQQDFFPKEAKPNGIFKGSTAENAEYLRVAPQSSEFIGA", "test": "Inhibition of human EGF receptor at 10 uM relative to control"}, "Rattus norvegicus [17]": {"species": "Rattus norvegicus", "test": "Inhibition of rat central GABA-A receptor muscimol site at 10 uM relative to control"}, "[18]": {"biological_target": "Gamma-aminobutyric acid type B receptor subunit 1 (Homo sapiens) (UniProt Q9UBS5)", "test": "Inhibition of human GABA-B1A receptor at 10 uM relative to control"}, "[19]": {"biological_target": "Glucocorticoid receptor (Homo sapiens) (UniProt P04150)", "test": "Inhibition of human glucocorticoid receptor at 10 uM relative to control"}, "[20]": {"biological_target": "Histamine H1 receptor (Homo sapiens) (UniProt P35367)", "test": "Inhibition of human histamine H1 receptor at 10 uM relative to control"}, "[21]": {"biological_target": "Histamine H2 receptor (Homo sapiens) (UniProt P25021)", "sequence (P25021 whole entry)": "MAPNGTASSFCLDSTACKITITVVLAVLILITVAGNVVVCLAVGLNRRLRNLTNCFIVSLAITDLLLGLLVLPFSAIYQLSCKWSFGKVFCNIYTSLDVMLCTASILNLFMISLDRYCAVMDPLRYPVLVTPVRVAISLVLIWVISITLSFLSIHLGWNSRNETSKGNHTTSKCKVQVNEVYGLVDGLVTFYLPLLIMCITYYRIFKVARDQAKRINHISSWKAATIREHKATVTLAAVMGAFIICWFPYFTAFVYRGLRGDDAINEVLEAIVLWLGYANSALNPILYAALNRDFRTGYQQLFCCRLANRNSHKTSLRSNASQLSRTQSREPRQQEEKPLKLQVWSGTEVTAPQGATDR", "test": "Inhibition of human histamine H2 receptor at 10 uM relative to control"}, "Rattus norvegicus [22]": {"species": "Rattus norvegicus", "test": "Inhibition of central rat I2 receptor imidazoline binding site at 10 uM relative to control"}, "[23]": {"biological_target": "Cysteinyl leukotriene receptor 1 (Homo sapiens) (UniProt Q9Y271)", "sequence (Q9Y271 whole entry)": "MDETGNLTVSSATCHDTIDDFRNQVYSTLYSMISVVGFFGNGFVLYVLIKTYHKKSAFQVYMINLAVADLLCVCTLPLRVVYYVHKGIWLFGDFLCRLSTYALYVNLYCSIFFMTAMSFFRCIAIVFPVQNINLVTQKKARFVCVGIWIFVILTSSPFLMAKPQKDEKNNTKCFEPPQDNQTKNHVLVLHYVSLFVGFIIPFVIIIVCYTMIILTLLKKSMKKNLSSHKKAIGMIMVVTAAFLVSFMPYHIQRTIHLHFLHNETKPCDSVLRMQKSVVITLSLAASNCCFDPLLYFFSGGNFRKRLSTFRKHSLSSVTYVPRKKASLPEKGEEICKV", "test": "Inhibition of human cysteinyl cys leukotriene receptor 1 at 10 uM relative to control"}, "[24]": {"biological_target": "Muscarinic acetylcholine receptor M1 (Homo sapiens) (UniProt P11229)", "sequence (P11229 whole entry)": "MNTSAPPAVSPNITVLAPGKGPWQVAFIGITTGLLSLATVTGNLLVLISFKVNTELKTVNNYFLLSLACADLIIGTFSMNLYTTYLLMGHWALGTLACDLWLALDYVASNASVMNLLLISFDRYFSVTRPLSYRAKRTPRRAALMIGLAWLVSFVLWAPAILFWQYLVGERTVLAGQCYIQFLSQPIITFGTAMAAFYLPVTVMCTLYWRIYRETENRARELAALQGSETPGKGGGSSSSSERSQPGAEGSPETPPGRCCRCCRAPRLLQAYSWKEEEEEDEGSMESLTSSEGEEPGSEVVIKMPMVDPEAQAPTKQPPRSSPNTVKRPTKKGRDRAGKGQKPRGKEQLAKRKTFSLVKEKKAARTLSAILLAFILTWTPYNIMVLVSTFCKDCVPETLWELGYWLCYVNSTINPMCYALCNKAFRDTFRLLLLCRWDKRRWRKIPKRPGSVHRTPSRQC", "test": "Inhibition of human muscarinic M1 receptor at 10 uM relative to control"}, "[25]": {"biological_target": "Muscarinic acetylcholine receptor M3 (Homo sapiens) (UniProt P20309)", "sequence (P20309 whole entry, looked up)": "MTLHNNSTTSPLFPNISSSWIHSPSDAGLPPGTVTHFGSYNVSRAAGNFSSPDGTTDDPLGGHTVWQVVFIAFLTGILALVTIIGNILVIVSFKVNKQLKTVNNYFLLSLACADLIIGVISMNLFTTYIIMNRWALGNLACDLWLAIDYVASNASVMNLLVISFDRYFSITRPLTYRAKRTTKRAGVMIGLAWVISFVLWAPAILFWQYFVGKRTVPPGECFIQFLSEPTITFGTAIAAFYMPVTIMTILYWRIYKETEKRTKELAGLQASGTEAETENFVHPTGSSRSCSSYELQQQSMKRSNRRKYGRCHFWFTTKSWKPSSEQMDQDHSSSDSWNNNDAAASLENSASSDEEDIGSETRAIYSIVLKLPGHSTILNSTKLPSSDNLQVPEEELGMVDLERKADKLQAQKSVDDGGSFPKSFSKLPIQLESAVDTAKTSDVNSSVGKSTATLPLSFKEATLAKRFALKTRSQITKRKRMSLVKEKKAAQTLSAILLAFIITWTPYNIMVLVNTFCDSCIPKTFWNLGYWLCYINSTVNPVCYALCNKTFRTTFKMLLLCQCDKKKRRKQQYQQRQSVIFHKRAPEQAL", "test": "Inhibition of human muscarinic M3 receptor at 10 uM relative to control"}, "[26]": {"biological_target": "Acetylcholine receptor subunit alpha (Homo sapiens) (UniProt P02708)", "sequence (P02708 whole entry)": "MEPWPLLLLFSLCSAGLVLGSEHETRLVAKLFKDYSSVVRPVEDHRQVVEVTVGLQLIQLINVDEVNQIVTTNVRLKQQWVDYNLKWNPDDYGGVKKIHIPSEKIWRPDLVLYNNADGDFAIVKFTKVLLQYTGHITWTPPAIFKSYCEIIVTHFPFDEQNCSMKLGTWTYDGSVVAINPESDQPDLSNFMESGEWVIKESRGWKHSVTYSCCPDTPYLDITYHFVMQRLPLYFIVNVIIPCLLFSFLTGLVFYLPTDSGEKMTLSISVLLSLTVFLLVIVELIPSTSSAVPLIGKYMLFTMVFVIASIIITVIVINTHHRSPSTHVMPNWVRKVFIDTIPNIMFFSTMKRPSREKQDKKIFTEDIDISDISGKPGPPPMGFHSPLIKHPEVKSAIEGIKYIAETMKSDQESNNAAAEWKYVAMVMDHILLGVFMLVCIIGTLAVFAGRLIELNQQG", "test": "Inhibition of human alpha1 nAChR bungarotoxin site at 10 uM relative to control"}, "[27]": {"biological_target": "Delta-type opioid receptor (Homo sapiens) (UniProt P41143)", "test": "Inhibition of human delta 1 opioid receptor at 10 uM relative to control"}, "[28]": {"biological_target": "Kappa-type opioid receptor (Homo sapiens) (UniProt P41145)", "test": "Inhibition of human kappa opioid receptor at 10 uM relative to control"}, "Mus musculus [29]": {"species": "Mus musculus", "test": "Inhibition of mouse phorbol ester receptor at 10 uM relative to control"}, "hERG (KCNH2)": {"biological_target": "hERG (KCNH2) (Homo sapiens, UniProt Q12809)", "test": "Inhibition of human ERG at 10 uM relative to control"}, "Rattus norvegicus [30]": {"species": "Rattus norvegicus", "test": "Inhibition of rat P2Y receptor at 10 uM relative to control"}, "[31]": {"biological_target": "5-hydroxytryptamine receptor 1A (Homo sapiens) (UniProt P08908)", "test": "Inhibition of human 5-HT1A receptor at 10 uM relative to control"}, "[32]": {"biological_target": "5-hydroxytryptamine receptor 2B (Homo sapiens) (UniProt P41595)", "test": "Inhibition of human 5-HT2B receptor at 10 uM relative to control"}, "Rattus norvegicus [33]": {"species": "Rattus norvegicus", "test": "Inhibition of rat sodium channel site 2 at 10 uM relative to control"}, "[34]": {"biological_target": "Sodium-dependent dopamine transporter (Homo sapiens) (UniProt Q01959)", "test": "Inhibition of human DAT at 10 uM relative to control"}, "Rattus norvegicus [35]": {"species": "Rattus norvegicus", "test": "Inhibition of rat GABA receptor at 10 uM relative to control"}, "[36]": {"biological_target": "Sodium-dependent noradrenaline transporter (Homo sapiens) (UniProt P23975)", "sequence (P23975 whole entry)": "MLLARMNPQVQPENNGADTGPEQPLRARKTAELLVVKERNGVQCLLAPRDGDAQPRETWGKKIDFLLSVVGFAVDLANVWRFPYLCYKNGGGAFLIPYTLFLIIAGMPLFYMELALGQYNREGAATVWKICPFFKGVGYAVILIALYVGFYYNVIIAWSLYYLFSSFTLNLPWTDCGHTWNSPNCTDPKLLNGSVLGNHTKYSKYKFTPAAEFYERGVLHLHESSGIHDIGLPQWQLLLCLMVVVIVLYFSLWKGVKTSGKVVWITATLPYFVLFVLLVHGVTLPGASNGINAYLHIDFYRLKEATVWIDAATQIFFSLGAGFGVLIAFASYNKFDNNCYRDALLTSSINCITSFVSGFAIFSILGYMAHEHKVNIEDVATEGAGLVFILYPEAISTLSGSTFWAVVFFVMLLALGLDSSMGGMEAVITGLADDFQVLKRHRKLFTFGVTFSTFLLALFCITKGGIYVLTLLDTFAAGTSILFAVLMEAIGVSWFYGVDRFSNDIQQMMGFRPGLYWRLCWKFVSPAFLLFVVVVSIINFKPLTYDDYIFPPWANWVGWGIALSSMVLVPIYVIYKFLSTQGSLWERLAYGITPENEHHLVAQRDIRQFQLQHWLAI", "test": "Inhibition of human NET at 10 uM relative to control"}, "[37]": {"biological_target": "Sodium-dependent serotonin transporter (Homo sapiens) (UniProt P31645)", "test": "Inhibition of human SERT at 10 uM relative to control"}},
  "note": "Activity calls are given as the source filed them. The rule behind the calls is not given here.",
  "data": [
    {"molecule": "C[C@@H](COc1ccn(-c2ccc(F)cc2)c(=O)c1)Oc1ccccc1", "values": [
      {"measurement": "IC50", "setting": "[1]", "value": 0.245, "unit": "µM"},
      {"measurement": "IC50", "setting": "[2]", "value": "> 30", "unit": "µM"},
      {"measurement": "IC50", "setting": "Cytochrome P450 3A4", "value": "> 30", "unit": "µM"},
      {"measurement": "IC50", "setting": "Cytochrome P450 1A2", "value": "> 30", "unit": "µM"},
      {"measurement": "fraction unbound at 6 h, 5 µM", "setting": "[3]", "value": 0.06},
      {"measurement": "Kp", "setting": "[4]", "value": 1.15},
      {"measurement": "inhibition", "setting": "[5]", "value": "inactive"},
      {"measurement": "inhibition", "setting": "[6]", "value": "inactive"},
      {"measurement": "fu", "setting": "[7]", "value": 0.18},
      {"measurement": "Activity", "setting": "Mus musculus [8]", "value": "Active"},
      {"measurement": "concentration", "setting": "[9]", "value": 1200, "unit": "nM"},
      {"measurement": "inhibition", "setting": "[10]", "value": "> 50", "unit": "%"},
      {"measurement": "inhibition", "setting": "[11]", "value": "> 50", "unit": "%"},
      {"measurement": "inhibition at 10 µM", "setting": "[12]", "value": "> 50", "unit": "%"},
      {"measurement": "inhibition", "setting": "Rattus norvegicus [13]", "value": "> 50", "unit": "%"},
      {"measurement": "inhibition", "setting": "[14]", "value": "> 50", "unit": "%"},
      {"measurement": "inhibition", "setting": "Homo sapiens", "value": "> 50", "unit": "%"},
      {"measurement": "inhibition", "setting": "[15]", "value": "> 50", "unit": "%"},
      {"measurement": "inhibition", "setting": "[16]", "value": "> 50", "unit": "%"},
      {"measurement": "inhibition", "setting": "Rattus norvegicus [17]", "value": "> 50", "unit": "%"},
      {"measurement": "inhibition", "setting": "[18]", "value": "> 50", "unit": "%"},
      {"measurement": "inhibition", "setting": "[19]", "value": "> 50", "unit": "%"},
      {"measurement": "inhibition", "setting": "[20]", "value": "> 50", "unit": "%"},
      {"measurement": "inhibition", "setting": "[21]", "value": "> 50", "unit": "%"},
      {"measurement": "inhibition", "setting": "Rattus norvegicus [22]", "value": "> 50", "unit": "%"},
      {"measurement": "inhibition", "setting": "[23]", "value": "> 50", "unit": "%"},
      {"measurement": "inhibition", "setting": "[24]", "value": "> 50", "unit": "%"},
      {"measurement": "inhibition", "setting": "[25]", "value": "> 50", "unit": "%"},
      {"measurement": "inhibition", "setting": "[26]", "value": "> 50", "unit": "%"},
      {"measurement": "inhibition", "setting": "[27]", "value": "> 50", "unit": "%"},
      {"measurement": "inhibition", "setting": "[28]", "value": "> 50", "unit": "%"},
      {"measurement": "inhibition", "setting": "Mus musculus [29]", "value": "> 50", "unit": "%"},
      {"measurement": "inhibition at 10 µM", "setting": "hERG (KCNH2)", "value": "> 50", "unit": "%"},
      {"measurement": "inhibition", "setting": "Rattus norvegicus [30]", "value": "> 50", "unit": "%"},
      {"measurement": "inhibition", "setting": "[31]", "value": "> 50", "unit": "%"},
      {"measurement": "inhibition", "setting": "[32]", "value": "> 50", "unit": "%"},
      {"measurement": "inhibition", "setting": "Rattus norvegicus [33]", "value": "> 50", "unit": "%"},
      {"measurement": "inhibition", "setting": "[34]", "value": "> 50", "unit": "%"},
      {"measurement": "inhibition", "setting": "Rattus norvegicus [35]", "value": "> 50", "unit": "%"},
      {"measurement": "inhibition", "setting": "[36]", "value": "> 50", "unit": "%"},
      {"measurement": "inhibition", "setting": "[37]", "value": "> 50", "unit": "%"}
    ]}
  ]
}
